Data: PMC6272869, “Simultaneous Determination of Multiple Components in Guanjiekang in Rat Plasma via the UPLC–MS/MS Method and Its Application in Pharmacokinetic Study” (Molecules, 2016)
Like-named read-outs stand apart in the source and are kept apart here.

Key:
[1] = Pharmacokinetic study in rats after single oral administration of GJK (UPLC-MS/MS of plasma); type: in vivo, Sprague–Dawley rats; conditions: single oral GJK 24 g/kg; for AUC(0-inf) / half-life / Cmax / MRT last / AUC(0-t) / Tmax: Sprague-Dawley; for AUC(0-inf) / half-life / Cmax / MRT last / AUC(0-t) / Tmax (time to reach peak concentration): rat plasma; for AUC(0-inf): n = 6, AUC0–t extrapolated to infinity; for AUC(0-inf) / AUC(0-t): mean ± S.D.; for half-life / Cmax / MRT last: n = 6, mean ± S.D.; for half-life: non-compartmental, read-out: T1/2z (terminal elimination half-life); for Cmax: read-out: Cmax (maximum plasma concentration); for MRT last: read-out: MRT0–t (mean residence time) (converted); for AUC(0-t): n = 6, zero to last sampling time; for Tmax: rat, po, 24 g/kg, read-out: Tmax (time to reach peak concentration) (converted); for Tmax / Tmax (time to reach peak concentration): n = 6, median (minimum, maximum)
Experimental: Chromatographic analyses were performed using an Agilent 1290 series UPLC system (Agilent Technologies, Santa Clara, CA, USA) equipped with a binary pump, an online degasser, an auto plate sampler, and a thermostatically controlled column compartment. The determination was carried out at 30 °C on a Waters Acquity UPLC C18 column (100 mm × 2.1 mm, […], Waters, Milford, MA, USA). The mobile phase consisted of 0.1% formic acid (A) and acetonitrile (B) using a gradient elution of 10%–34% B at 0–6 min, 34%–80% B at 6–10 min, 80% B at 10–12 min, 10% B at 12–15 min, and the re-equilibration time of gradient elution was 1 min. The sample injection volume was 5 µL, and the flow rate was 0.35 mL/min. The MS detection was performed using an Agilent 6460 Triple Quadrupole MS (Agilent Technologies) equipped with an electrospray ionization (ESI) source. […] Other parameters were as follows: drying gas (N2) flow rate, 11.0 L/min.
Plasma samples (50 µL) were thawed on ice and mixed with 200 µL of IS (20.0 ng/mL) via vortexing for 1 min. Then, the mixture was centrifuged at 13,500 rpm for 15 min to separate the precipitated protein at 4 °C. The supernatant was transferred into a clean Eppendorf tube and evaporated to dryness under a stream of nitrogen. The residues were reconstituted with 50 µL of water–methanol (50:50, v/v), vortexed and centrifuged at 13,500 rpm for 15 min. Then, the supernatants were injected into the UPLC–MS/MS for analysis.
Sprague–Dawley rats (200–250 g) were obtained from the Center of the Chinese University of Hong Kong and were kept in an environmentally controlled room (temperature: 25 ± 2 °C, humidity: 50% ± 5%, 12 h dark-light cycle) for at least 7 days before the experiments. Prior to the experiments, the animals were fasted for 24 h with water ad libitum. All protocols of animal experiments were approved in accordance with the regulations of the Experimental Animal Administration issued by the Macau University of Science and Technology.
The blood samples (100 µL) were individually collected from the caudal vein into heparinized tubes before administration, and 5, 10, 15, 30, 45, 60, 90, 120, 240, 360, 480, 720 and 1440 min after administration, and then immediately centrifuged at 4500 rpm for 15 min. […] The main PK parameters, including the maximum plasma concentration (Cmax), time to reach Cmax (Tmax), half-life time (T1/2), area under the curve (AUC 0–t and AUC 0–∞) and mean residence time (MRT), were calculated via the non-compartment model using the pharmacokinetic software, PK Solutions 2.0 (Summit Co., Montrose, CO, USA).

[2] = Stability of the analytes in rat plasma under different storage conditions (QC samples); type: in vitro ADME; conditions: n = 3; for Remaining (%) / remaining at 4 h / remaining at 360 h: rat plasma; for Remaining (%): freeze–thaw cycles (three); for remaining at 24 h / remaining at 4 h / remaining at 360 h: rat; for remaining at 24 h: extracted plasma QC samples in auto-sampler, 4 °C for 24 h; for remaining at 4 h: 25 °C for 4 h; for remaining at 360 h: at −70 °C for 15 days
Experimental: The stability of the seven compounds in rat plasma was assessed by analyzing the QC samples at three concentrations under different sample storage conditions and processing procedures. Short-term stability was assessed by analyzing the QC samples that were kept at room temperature for 4 h, which exceeded the routine sample preparation time. […] Freeze-thaw stability was investigated after three freeze (−40 °C) and thaw (room temperature) cycles. Post-preparation stability was assessed by analyzing the extracted QC samples that were kept in the auto-sampler at 4 °C for […]. All stability testing QC samples were evaluated using the calibration curve of the freshly prepared samples.

[3] = test system: ages-induced mesangial cell damage; parameters: method as in PMID 23881455; conditions: in vitro; read-out: IC50 of antioxidative and anti-inflammatory activities; cited from earlier work
[4] = test system: phosphorylation of ERK, JNK, IKK stimulated by TNF-α; parameters: method as in PMID 23978582; conditions: cited from earlier work
[5] = test system: NLRP3-dependent interleukin (IL)-1β production; parameters: method as in PMID 25210146; conditions: cited from earlier work
[6] = test system: toll-like receptor 4 (TLR4)/MD2 complex; parameters: method as in PMID 22422925; conditions: cited from earlier work
[7] = test system: NLRP3-activated ASC oligomerization; parameters: method as in PMID 25210146; conditions: cited from earlier work
[8] = plasma, medium QC concentration

| Structure (SMILES) | AUC(0-inf) ([1]; in vivo) [ng·h/mL] | half-life ([1]; in vivo) [h] | Cmax ([1]; in vivo) [ng/mL] | MRT last ([1]; in vivo) [h] | AUC(0-t) ([1]; in vivo) [ng·h/mL] | Tmax ([1]; in vivo) [h] | Tmax (time to reach peak concentration) [1] | Remaining (%) ([2]; high QC concentration) | Remaining (%) ([2]; low QC concentration) | Remaining (%) ([2]; medium QC concentration) | remaining at 24 h ([2]; plasma, high QC concentration) [%] | remaining at 24 h ([2]; plasma, low QC concentration) [%] | remaining at 24 h [2, 8] [%] | remaining at 4 h ([2]; plasma, high QC concentration) [%] | remaining at 4 h ([2]; plasma, low QC concentration) [%] | remaining at 4 h [2, 8] [%] | remaining at 360 h ([2]; plasma, high QC concentration) [%] | remaining at 360 h ([2]; plasma, low QC concentration) [%] | remaining at 360 h [2, 8] [%] | Tmax ([1]; plasma) [h] | also measured |
| --- | --- | --- | --- | --- | --- | --- | --- | --- | --- | --- | --- | --- | --- | --- | --- | --- | --- | --- | --- | --- | --- |
| COCC12CCC(OC)C34C5CC6(O)C(OC)C(O)C(O)(C5C6OC(=O)c5ccccc5)C(C(OC)C13)C4N(C)C2 (stereo not shown) [Benzoylhypaconine, benzoylhypaconine] | 76.7 | 6.37 ± 1.08 | 35.6 ± 10.2 | 6.25 | 72.1 | < 0.767 | 30 (30, 45) min | 106.9 | 109.6 | 92.7 | 104 | 107 | 104 | 105 | 108 | 108 | 105 | 108 | 104 |  |  |
| COc1cc2c(cc1OC)[C@@H]1Cc3ccc(OC)c(OC)c3CN1CC2 [Tetrahydropalmatine, tetrahydropalmatine] | 184 | 5.17 ± 0.9 | 42 ± 13.4 | 8.2 | 170 | 3.15 | 180 (180, 180) min | 108.1 | 89.9 | 107.4 | 101 | 105 | 98.4 | 102 | 103 | 101 | 103 | 104 | 103 |  |  |
| C[C@@]12C[C@@]3(O)O[C@@H](O1)[C@]1(COC(=O)c4ccccc4)[C@H]3C[C@@]12O[C@@H]1O[C@H](CO)[C@@H](O)[C@H](O)[C@H]1O [Paeoniflorin, paeoniflorin] | 1230 | 3.5 ± 0.633 | 905 ± 226 | 3.32 | 1220 | < 0.767 |  | 105.0 | 107.8 | 106.4 | 103 | 98.3 | 105 | 96.4 | 102 | 102 | 104 | 98.6 | 104 |  | IC50 [3]: 420 µM; Concentration that inhibits phosphorylation of ERK, JNK, IKK [4]: 25 ng/mL |
| COc1ccc(-c2coc3cc(O)ccc3c2=O)cc1 [Formononetin, formononetin] |  |  |  |  | 15.2 |  | 45 (30, 45) min |  |  |  |  |  |  |  |  |  |  |  |  | < 0.767 | AUC(0-inf) [1]: 18.7 ng·h/mL; half-life [1]: 15.8 ± 1.62 h; Cmax [1]: 6.79 ± 2.18 ng/mL; MRT last [1]: 12.9 h |
| COc1ccc(-c2coc3cc(O[C@@H]4O[C@H](CO)[C@@H](O)[C@H](O)[C@H]4O)ccc3c2=O)cc1O [Calycosin-7-glucoside, calycosin-7-glucoside] |  |  |  |  |  |  | 45 (45, 60) min | 107.4 | 108.1 | 107.3 |  |  |  | 103 | 106 | 96 | 102 | 108 | 94.3 | < 0.767 | AUC(0-inf) [1]: 79.3 ng·h/mL; half-life [1]: 4.43 ± 0.733 h; Cmax [1]: 52.2 ± 14.8 ng/mL; MRT last [1]: 2.17 h; AUC(0-t) [1]: 77.4 ng·h/mL; remaining at 24 h ([2]; high QC concentration): 103%; remaining at 24 h ([2]; low QC concentration): 104%; remaining at 24 h ([2]; medium QC concentration): 104% |
| O=C(/C=C/c1ccc(O)cc1)c1ccc(O)cc1O [Isoliquiritigenin, isoliquiritigenin] | 2750 | 4.88 ± 0.8 | 337 ± 103 | 7.75 | 2650 | 3 |  | 105.2 | 106.3 | 107.0 | 102 | 94.6 | 102 | 103 | 102 | 103 | 102 | 103 | 96.2 |  | Concentration that inhibits NLRP3-dependent IL-1β production ([5]; at both the priming step and the activation step): 1 µM; Concentration that inhibits NLRP3-dependent IL-1β production, converted to mass concentration ([5]; printed as equal to 1 µM): 256 ng/mL; Effect on LPS-induced TLR4/MD2 complex signaling and NF-κB activation [6]: block lipopolysaccharides (LPS)-induced toll-like receptor 4 (TLR4)/MD2 complex signaling and nuclear factor NF-κB activation; Effect on NLRP3-activated ASC oligomerization [7]: inhibit NACHT, LRR and PYD domains-containing protein 3 (NLRP3)-activated apoptosis-associated speck-like protein (ASC) oligomerization |
